Values quoted from earlier work in patent US12436146B2, “Cell-based assay for quantifying the potency and efficacy of cannabinoids and/or terpenoids, and methods of use thereof” (priority 2017, dated 2025).

Assays:
[1] = biological target: T1, CB1 (Homo sapiens, UniProt P21554)
[2] = biological target: T2, CB2 (Homo sapiens, UniProt P34972)
[3] = biological target: T2, CB2; settings: read-out: CB2 affinity (Ki)
[4] = biological target: T1, CB1; settings: read-out: CB1 affinity (Ki)

T1 sequence (P21554 whole entry): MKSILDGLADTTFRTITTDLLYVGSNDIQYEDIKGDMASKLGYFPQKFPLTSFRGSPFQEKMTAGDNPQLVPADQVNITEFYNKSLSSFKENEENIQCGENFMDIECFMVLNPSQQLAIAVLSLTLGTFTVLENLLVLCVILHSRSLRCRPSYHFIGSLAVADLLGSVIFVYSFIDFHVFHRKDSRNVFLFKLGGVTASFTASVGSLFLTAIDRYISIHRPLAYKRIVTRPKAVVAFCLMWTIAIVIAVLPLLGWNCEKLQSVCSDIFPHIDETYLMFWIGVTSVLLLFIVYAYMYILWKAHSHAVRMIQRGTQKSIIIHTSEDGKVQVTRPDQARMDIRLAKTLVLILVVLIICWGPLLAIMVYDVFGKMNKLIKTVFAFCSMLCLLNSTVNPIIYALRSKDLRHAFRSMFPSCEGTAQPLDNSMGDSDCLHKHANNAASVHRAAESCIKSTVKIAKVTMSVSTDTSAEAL
T2 sequence (P34972 whole entry): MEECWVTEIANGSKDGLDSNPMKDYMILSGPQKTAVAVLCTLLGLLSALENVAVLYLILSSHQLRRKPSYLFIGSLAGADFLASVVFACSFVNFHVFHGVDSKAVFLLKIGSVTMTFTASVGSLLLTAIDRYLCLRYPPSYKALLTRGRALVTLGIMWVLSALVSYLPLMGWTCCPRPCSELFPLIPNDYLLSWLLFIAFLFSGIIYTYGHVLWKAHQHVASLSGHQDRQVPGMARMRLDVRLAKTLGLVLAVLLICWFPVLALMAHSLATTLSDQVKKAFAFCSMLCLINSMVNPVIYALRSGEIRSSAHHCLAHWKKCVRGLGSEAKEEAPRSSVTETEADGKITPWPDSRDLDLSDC

Compound	Efficacy towards CB1 [1]	Efficacy towards CB2 [2]	Ki [3]	Ki [4]
CCCCC/C=C\C/C=C\C/C=C\C/C=C\CCCC(=O)OC(CO)CO [2-Arachidonoylglycerol]	Full agonist			
CCCCC/C=C\C/C=C\C/C=C\C/C=C\CCCCOC(CO)CO [2-Arachidonyl glyceryl ether]	Full agonist	Full agonist	480 nM	21 nM
Cc1c(C(=O)c2cccc3ccccc23)c2ccc([N+](=O)[O-])cc2n1CC1CCCCN1C (stereo not shown) [AM-1221]	Agonist	Agonist	0.28 nM	52.3 nM
O=C(c1cccc2ccccc12)c1cn(CCCCCF)c2cc([N+](=O)[O-])ccc12 [AM-1235]	Agonist	Agonist	20.4 nM	1.5 nM
N#CCCCCn1cc(C(=O)c2cccc3ccccc23)c2ccccc21 [AM-2232]	Agonist	Agonist	1.48 nM	0.28 nM
O=C(O[C@@H]1Cc2c(O)cc(O)cc2O[C@@H]1c1cc(O)c(O)c(O)c1)c1cc(O)c(O)c(O)c1 [EGCG]	Agonist		> 50000 nM	33600 nM
CCCCCn1c(C)c(C(=O)c2cccc3ccccc23)c2ccccc21 [JWH-007]	Agonist	Agonist	2.94 nM	9 nM
CCCCCn1cc(C(=O)c2cccc3ccccc23)c2ccccc21 [JWH-018]	Full agonist	Full agonist	2.94 ± 2.65 nM	9 ± 5 nM
CCCCC/C=C\C/C=C\C/C=C\C/C=C\CCCC(=O)NCCc1ccc(O)c(O)c1 [N-Arachidonoyl dopamine]	Agonist			
CCCCCn1cc(C(=O)C2C(C)(C)C2(C)C)c2ccccc21 [UR-144]	Full agonist	Full agonist	1.8 nM	150 nM
COc1ccc(/C=C/c2cc(OC)cc(=O)o2)cc1 [Yangonin]			> 10000 nM	
